Reference: patent publication US7220784B2, “Substituted stilbenes and their reactions” (priority 2000, dated 2007)

Legend:
[1] = tested on: L1210 murine leukaemia cell line; experiment: MTT, L1210; format: cell-based; settings: Mus musculus; L1210 murine leukaemia cell line (footnote a)
tubulin [2] = experiment: CD IC50 (Tables 12-26, abbreviation not defined); format: binding
tubulin [3] = experiment: MA IC50 (Tables 12-26, abbreviation not defined); format: biochemical
[4] = tested on: cancer cell growth in vitro; settings: background; cited from earlier work
K562 cells = experiment: In situ ultra violet irradiation of dosed K562 cells, IC50; format: cell-based, human; settings: K562, in situ, within 2 seconds of exposure; read-out: IC50 after exposure to ultraviolet light
Description: Previously, the isomerisation study had been performed ex situ, i.e. in a photochemical reactor. However, it was necessary to illustrate the potential of the process as a real therapy by repeating the isomerization in the presence of the caner cells i.e. in situ. […] Following irradiation, the cells were incubated in the normal way and the IC50 values were determined.
These consisted of i) exposing K562 cells only (i.e. cells which were not dosed with any potential drug candidate) to ultra violet light, ii) preventing K562 cells dosed with drug candidate from being exposed to ultra violet light, and iii) preventing K562 cells only (i.e. cells which were not dosed with any potential drug candidate) from being exposed to ultra violet light. […]

[5] = background; cited from earlier work
K562 = K562 cell cycle analysis; format: cell-based, human; further: test concentration or dose not given here

**Q.** Which results are given for `COc1ccc(/C=C\c2cc(O)c(OC)c(OC)c2)cc1O` [Compound 18, reference compound]?
**A.** IC50 [1]: 0.04 µM; IC50 (tubulin [2]): 22000 nM; IC50 (tubulin [3]): 4000 to 5000 nM

**Q.** Which inhibits cell growth [4] does the source give for `COc1ccc(/C=C/c2cc(OC)c(OC)c(OC)c2)cc1O` [trans-CA-4, trans-combretastatin A-4, reference compound] here?
**A.** μM range

**Q.** What about the IC50 (K562 cells) of the same molecule?
**A.** 2 nM

**Q.** For “cis-combretastatin A-4 [Compound 1, reference compound]”, which water solubility [5] is on record?
**A.** poor water solubility

**Q.** What about the “% of cells in G0–G1” value (K562) of the same molecule?
**A.** 3%

**Q.** And the “% of cells in G2-M” value (K562)?
**A.** 92%

**Q.** What about the “% of cells in S phase” value (K562) of the same molecule?
**A.** 6%

**Q.** And the “% of cells with DNA content <2 n” value (K562)?
**A.** 7%
